Results: patent publication US10138255B2, “Piperazine derivatives as HIV protease inhibitors” (Merck Sharp & Dohme Corp., priority 2014, dated 2018)

What follows are molecules tested on HIV-1 (H9IIIB strain) (assay: Cell-Based HIV Infection Assay Using a Reporter (MT4-GFP cells)). Conditions: Human immunodeficiency virus 1, inflection point (IP) of viral growth inhibition; MT4-GFP cells infected with HIV-1 H9IIIB; 50% normal human serum; mean of at least two independent experiments; read-out: Cell Based IP (50% NHS).
Description: Cell-Based HIV Infection Assay Using a Reporter (“Cell-Based”):
MT4-GFP cells contain a stably integrated HIV long terminal repeat promoter directing the transcription of green fluorescent protein (GFP). When HIV infects the cell, GFP is produced and the cell becomes green. MT4-GFP cells (250,000 cells/mL) were bulk-infected with HIV-1 (H9IIIB strain) at low multiplicity of infection (MOI) in RPM 1640 media, supplemented with 10% FBS for 24 h. Cells were then washed once in RPMI 1640 plus 10% FBS and resuspended in RPMI plus 50% normal human serum (NHS). Test compounds were serial-diluted in DMSO using an ECHO liquid dispenser. A control well included a combination of three HIV drugs (an inhibitor of HIV protease, integrase strand transfer and a non-nucleoside reverse transcriptase inhibitor; triple drug). The infected MT4-GFP cells were added to a 384-well poly-D-lysine coated black plate with clear bottom in which the diluted test compounds were placed. The cells were seeded in the plate at 8,000 cells per well and the final DMSO concentration was 0.4%. Infected cells were quantified at both 24 and 48 h post incubation using an Acumen eX3 plate reader. Viral reproductive ratio (R0) was determined using the number of infected cells at 48 h divided by the number of infected cells at 24 h. Percent viral growth inhibition was calculated by [1−(R−Rtripledrug)/(RDMSO−Rtripledrug)]*100. Compound potency inflection point (IP) was determined with use of a 4-parameter dose response curve analysis.
Data shown in the table reflects the mean of at least two independent experiments.

Going from COC(=O)N[C@H](C(=O)Nc1cccc(F)c1CCC1CNC2CCCS(=O)(=O)N1C2)[C@@H](c1ccc(Cl)cc1)c1ccc(C(C)(F)F)nc1 (stereo partly drawn) [Example 116, methyl [(1S,2S)-2-(4-chlorophenyl)-2-[6-(1,1-difluoroethyl)pyridin-3-yl]-1-({2-[2-(2,2-dioxido-2-thia-1,7-diazabicyclo[4.3.1]dec-9-yl)ethyl]-3-fluorophenyl}carbamoyl)ethyl]carbamate] to COC(=O)N[C@H](C(=O)Nc1cccc(F)c1CCC1CNC2CCCS(=O)(=O)N1C2)[C@@H](c1ccc(Cl)cc1)c1ccc(=O)n(C(C)C)c1 (stereo partly drawn) [Example 101, methyl {(1S,2S)-2-(4-chlorophenyl)-1-({2-[2-(2,2-dioxido-2-thia-1,7-diazabicyclo[4.3.1]dec-9-yl)ethyl]-3-fluorophenyl}carbamoyl)-2-[1-(1-methylethyl)-6-oxo-1,6-dihydropyridin-3-yl]ethyl}carbamate], the EC50 rises from 18 nM to 59 nM (3.3-fold). The first is the more potent here.

Going from COC(=O)N[C@H](C(=O)Nc1cccc(F)c1CCC1CNC2CCCS(=O)(=O)N1C2)[C@@H](c1ccc(Cl)cc1)C1CCOCC1 (stereo partly drawn) [Example 37, methyl [(1S,2R)-2-(4-chlorophenyl)-1-({2-[2-(2,2-dioxido-2-thia-1,7-diazabicyclo[4.3.1]dec-9-yl)ethyl]-3-fluorophenyl}carbamoyl)-2-(tetrahydro-2H-pyran-4-yl)ethyl]carbamate] to COC(=O)N[C@H](C(=O)Nc1cncc(F)c1CC[C@H]1CN[C@@H]2CCCS(=O)(=O)N1C2)[C@@H](c1ccc(Cl)cc1)C1CCOCC1 [Example 174, methyl [(1S,2R)-2-(4-chlorophenyl)-1-[(4-{2-[(6R,9S)-2,2-dioxido-2-thia-1,7-diazabicyclo[4.3.1]dec-9-yl]ethyl}-5-fluoropyridin-3-yl)carbamoyl]-2-(tetrahydro-2H-pyran-4-yl)ethyl]carbamate], the EC50 rises from 13 nM to 89 nM (6.8-fold).

Compared with CC(C)O[C@H]1CC[C@H]([C@H](c2ccc(Cl)cc2)[C@H](N)C(=O)Nc2cncc(F)c2CC[C@H]2CN[C@@H]3CCCS(=O)(=O)N2C3)CC1 [Example 250, (βR)-4-chloro-N-(4-{2-[(6R,9S)-2,2-dioxido-2-thia-1,7-diazabicyclo[4.3.1]dec-9-yl]ethyl}-5-fluoropyridin-3-yl)-β-[(1r,4R)-4-(1-methylethoxy)cyclohexyl]-L-phenylalaninamide], N[C@H](C(=O)Nc1cncc(F)c1CC[C@H]1CN[C@@H]2CCCS(=O)(=O)N1C2)[C@@H](c1ccc(Cl)c(F)c1)C1CCCCC1 [Example 244, (2S,3R)-2-amino-3-(4-chloro-3-fluorophenyl)-3-cyclohexyl-N-(4-(2-((6R,9S)-2,2-dioxido-2-thia-1,7-diazabicyclo[4.3.1]decan-9-yl)ethyl)-5-fluoropyridin-3-yl)propanamide] is 1.8-fold lower in EC50: 7.7 nM for the first, 4.3 nM for the second.

First: Cn1nc(C(F)(F)F)cc1[C@H](c1ccc(Cl)cc1)[C@H](N)C(=O)Nc1cncc(F)c1CC[C@H]1CN[C@@H]2CCCS(=O)(=O)N1C2 [Example 262, (βR)-4-chloro-N-(4-{2-[(6R,9S)-2,2-dioxido-2-thia-1,7-diazabicyclo[4.3.1]dec-9-yl]ethyl}-5-fluoropyridin-3-yl)-β-[1-methyl-3-(trifluoromethyl)-1H-pyrazol-5-yl]-L-phenylalaninamide]
Second: COC(=O)N[C@H](C(=O)Nc1cncc(F)c1CC[C@H]1CN[C@@H]2CCCS(=O)(=O)N1C2)[C@@H](c1ccc(F)cc1)C1CCOCC1 [Example 178, methyl {(1S)-2-[(4-{2-[(6R,9S)-2,2-dioxido-2-thia-1,7-diazabicyclo[4.3.1]dec-9-yl]ethyl}-5-fluoropyridin-3-yl)amino]-1-[(R)-(4-fluorophenyl)(tetrahydro-2H-pyran-4-yl)methyl]-2-oxoethyl}carbamate]
The EC50 of the first is 7.3-fold lower: 22 nM for the first, 160 nM for the second. The first is the more potent here.

In the case of N[C@H](C(=O)Nc1cccc(F)c1CC[C@H]1CNC2CCCS(=O)(=O)N1C2)C1(c2ccc(F)cc2)CCC(F)(F)CC1 (stereo partly drawn) [Example 39, (2S)-2-amino-2-[4,4-difluoro-1-(4-fluorophenyl)cyclohexyl]-N-(2-{2-[(9S)-2,2-dioxido-2-thia-1,7-diazabicyclo[4.3.1]dec-9-yl]ethyl}-3-fluorophenyl)ethanamide], the EC50 is reported as 200 nM.
